Experimental data published in patent US8138334B2, “Substituted oxa-diaza-spiro-[5.5]-undecanone derivatives and their use as neurokinin antagonists” (Janssen Pharmaceutica N.V., priority 2005, dated 2012).

Key:
NK1 = NK1 (Homo sapiens, UniProt P25103); assay: Signal transduction (ST), intracellular Ca++ FLIPR, NK1; format: cell-based; conditions: antagonist, read-out: NK1 pIC50 (converted)
Protocol: This test evaluates in vitro functional NK1 antagonistic activity. For the measurements of intracellular Ca^++ concentrations the cells were grown on 96-well (black wall/transparent bottom) plates from Costar for 2 days until they reached confluence. The cells were loaded with 2 μM Fluo3 in DMEM containing 0.1% BSA and 2.5 mM probenecid for 1 h at 37° C. They were washed 3× with a Krebs buffer (140 mM NaCl, 1 mM MgCl2×6H2O, 5 mM KCl, 10 mM glucose, 5 mM HEPES; 1.25 mM CaCl2; pH 7.4) containing 2.5 mM probenecid and 0.1% BSA (Ca^++-buffer). The cells were preincubated with a concentration range of antagonists for 20 min at RT and Ca^++-signals after addition of the agonists were measured in a Fluorescence Image Plate Reader (FLIPR from Molecular Devices, Crawley, England). The peak of the Ca^++-transient was considered as the relevant signal and the mean values of corresponding wells were analysed as described below.
The sigmoidal dose response curves were analysed by computerised curve-fitting, using the GraphPad Program. The EC50-value of a compound is the effective dose showing 50% of maximal effect. For mean curves the response to the agonist with the highest potency was normalised to 100%. For antagonist responses the IC50-value was calculated using non-linear regression. […]

NK2 = molecular target: T1, NK2 (Homo sapiens, UniProt P21452); assay: Signal transduction (ST), intracellular Ca++ FLIPR, NK2; format: cell-based; conditions: antagonist, read-out: NK2 pIC50 (converted)
T1 sequence (P21452 1-398): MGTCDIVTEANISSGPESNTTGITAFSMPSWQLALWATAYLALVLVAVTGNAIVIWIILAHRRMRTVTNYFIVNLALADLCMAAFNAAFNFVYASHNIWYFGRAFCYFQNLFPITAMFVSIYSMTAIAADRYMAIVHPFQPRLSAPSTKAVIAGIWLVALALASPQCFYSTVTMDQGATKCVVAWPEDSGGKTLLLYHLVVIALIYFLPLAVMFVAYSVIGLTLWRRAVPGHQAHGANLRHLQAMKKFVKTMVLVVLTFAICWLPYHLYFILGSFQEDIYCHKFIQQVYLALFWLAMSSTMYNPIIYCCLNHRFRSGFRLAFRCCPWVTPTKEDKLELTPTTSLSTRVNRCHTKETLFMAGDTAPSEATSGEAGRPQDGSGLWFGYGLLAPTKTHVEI

NK3 = molecular target: T2, NK3 (Homo sapiens, UniProt P29371); assay: Signal transduction (ST), intracellular Ca++ FLIPR, NK3; format: cell-based; conditions: antagonist, read-out: NK3 pIC50 (converted)
T2 sequence (P29371 1-465): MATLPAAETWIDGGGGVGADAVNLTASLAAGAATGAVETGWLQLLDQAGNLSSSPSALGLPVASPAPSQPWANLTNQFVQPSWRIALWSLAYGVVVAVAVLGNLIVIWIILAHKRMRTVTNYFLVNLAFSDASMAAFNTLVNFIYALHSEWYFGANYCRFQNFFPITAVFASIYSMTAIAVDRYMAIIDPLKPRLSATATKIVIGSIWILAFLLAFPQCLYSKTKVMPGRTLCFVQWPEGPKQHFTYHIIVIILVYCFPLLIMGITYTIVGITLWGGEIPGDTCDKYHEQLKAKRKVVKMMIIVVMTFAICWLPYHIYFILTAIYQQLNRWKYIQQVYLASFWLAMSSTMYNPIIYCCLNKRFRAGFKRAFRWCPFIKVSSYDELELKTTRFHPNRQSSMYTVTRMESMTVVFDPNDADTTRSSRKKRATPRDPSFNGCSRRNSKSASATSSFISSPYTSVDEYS

Chain of NK1 (P25103 whole entry): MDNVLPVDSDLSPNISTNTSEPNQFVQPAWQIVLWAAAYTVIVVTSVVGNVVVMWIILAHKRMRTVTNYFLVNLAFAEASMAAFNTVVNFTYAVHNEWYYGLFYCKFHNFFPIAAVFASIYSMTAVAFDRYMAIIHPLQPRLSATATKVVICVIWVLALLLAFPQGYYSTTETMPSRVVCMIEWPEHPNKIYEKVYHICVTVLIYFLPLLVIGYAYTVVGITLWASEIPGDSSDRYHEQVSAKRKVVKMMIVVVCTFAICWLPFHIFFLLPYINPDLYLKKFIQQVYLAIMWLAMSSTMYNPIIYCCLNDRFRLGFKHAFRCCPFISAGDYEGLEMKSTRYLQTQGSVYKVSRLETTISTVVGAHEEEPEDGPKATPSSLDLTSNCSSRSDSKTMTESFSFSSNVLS

Compound	IC50 (NK1) [nM]	IC50 (NK2) [nM]	IC50 (NK3) [nM]	melting point [°C]
CC(C)(C)CN1CCC2(CCN(C3CCN(C(=O)c4cc(C(F)(F)F)cc(C(F)(F)F)c4)C(Cc4ccccc4)C3)CC2)OC1=O (single isomer, unassigned) [Compound 2.1]	251	> 10000		
CC(C)(C)CN1CCC2(CCN(C3CCN(C(=O)c4cc(C(F)(F)F)cc(C(F)(F)F)c4)C(Cc4ccccc4)C3)CC2)OC1=O (single isomer, unassigned) [Compound 2.2]	63.1	2000	3980	
CCC(CC)CN1CCC2(CCN(C3CCN(C(=O)c4cc(C(F)(F)F)cc(C(F)(F)F)c4)C(Cc4ccccc4)C3)CC2)OC1=O (single isomer, unassigned) [Compound 2.3]	398	> 10000	5010	
CCC(CC)CN1CCC2(CCN(C3CCN(C(=O)c4cc(C(F)(F)F)cc(C(F)(F)F)c4)C(Cc4ccccc4)C3)CC2)OC1=O (single isomer, unassigned) [Compound 2.4]	79.4	5010	7940	
Cn1cccc1CN1CCC2(CCN(C3CCN(C(=O)c4cc(C(F)(F)F)cc(C(F)(F)F)c4)C(Cc4ccccc4)C3)CC2)OC1=O (single isomer, unassigned) [Compound 2.9]	631		3160	
Cn1cccc1CN1CCC2(CCN(C3CCN(C(=O)c4cc(C(F)(F)F)cc(C(F)(F)F)c4)C(Cc4ccccc4)C3)CC2)OC1=O (single isomer, unassigned) [Compound 2.10]	79.4	2000	3980	
O=C1OC2(CCN1Cc1cccnc1)CCN(C1CCN(C(=O)c3cc(C(F)(F)F)cc(C(F)(F)F)c3)C(Cc3ccccc3)C1)CC2 (single isomer, unassigned) [Compound 2.16]	398	> 10000	1580	
O=C1OC2(CCN1Cc1cccnc1)CCN(C1CCN(C(=O)c3cc(C(F)(F)F)cc(C(F)(F)F)c3)C(Cc3ccccc3)C1)CC2 (single isomer, unassigned) [Compound 2.17]	100	2510	6310	
CC(C)(C)C(=O)N1CCC2(CC1)CCN(C1CCN(C(=O)c3cc(C(F)(F)F)cc(C(F)(F)F)c3)C(Cc3ccccc3)C1)C(=O)O2 (stereo not drawn) [Compound 1.3]	10	5010	79.4	
O=C(C1CC1)N1CCC2(CC1)CCN([C@H]1CCN(C(=O)c3cc(C(F)(F)F)cc(C(F)(F)F)c3)[C@H](Cc3ccccc3)C1)C(=O)O2 [Compound 1.4]	12.6	1000	126	
O=C(C1CCOC1)N1CCC2(CC1)CCN([C@H]1CCN(C(=O)c3cc(C(F)(F)F)cc(C(F)(F)F)c3)[C@H](Cc3ccccc3)C1)C(=O)O2 (stereo partly drawn) [Compound 1.5]	12.6	7940	251	
O=C(C1CCOC1)N1CCC2(CC1)CCN(C1CCN(C(=O)c3cc(C(F)(F)F)cc(C(F)(F)F)c3)C(Cc3ccccc3)C1)C(=O)O2 (stereo not drawn) [Compound 1.6]	25.1			102
O=C(c1ccoc1)N1CCC2(CC1)CCN(C1CCN(C(=O)c3cc(C(F)(F)F)cc(C(F)(F)F)c3)C(Cc3ccccc3)C1)C(=O)O2 (stereo not drawn) [Compound 1.7]	15.8	7940	126	
O=C(c1ccoc1)N1CCC2(CC1)CCN(C1CCN(C(=O)c3cc(C(F)(F)F)cc(C(F)(F)F)c3)C(Cc3ccccc3)C1)C(=O)O2 (stereo not drawn) [Compound 1.8]	25.1			192
Cc1nnsc1C(=O)N1CCC2(CC1)CCN(C1CCN(C(=O)c3cc(C(F)(F)F)cc(C(F)(F)F)c3)C(Cc3ccccc3)C1)C(=O)O2 (stereo not drawn) [Compound 1.10]	12.6	6310	316	
O=C(c1ccccc1)N1CCC2(CC1)CCN(C1CCN(C(=O)c3cc(C(F)(F)F)cc(C(F)(F)F)c3)C(Cc3ccccc3)C1)C(=O)O2 (stereo not drawn) [Compound 1.11]	31.6	> 10000	794	
O=C(c1ccccc1)N1CCC2(CC1)CCN(C1CCN(C(=O)c3cc(C(F)(F)F)cc(C(F)(F)F)c3)C(Cc3ccccc3)C1)C(=O)O2 (stereo not drawn) [Compound 1.12]	50.1			110
O=C(c1cnccn1)N1CCC2(CC1)CCN(C1CCN(C(=O)c3cc(C(F)(F)F)cc(C(F)(F)F)c3)C(Cc3ccccc3)C1)C(=O)O2 (stereo not drawn) [Compound 1.13]	50.1	7940	1580	
O=C1OC2(CCN1CC1CCCCC1)CCN(C1CCN(C(=O)c3cc(C(F)(F)F)cc(C(F)(F)F)c3)C(Cc3ccccc3)C1)CC2 (stereo not drawn) [Compound 2.5]	200	5010	> 10000	
O=C1OC2(CCN1Cc1ccsc1)CCN(C1CCN(C(=O)c3cc(C(F)(F)F)cc(C(F)(F)F)c3)C(Cc3ccccc3)C1)CC2 (stereo not drawn) [Compound 2.6]	200	> 10000	2510	
O=C1OC2(CCN1Cc1ccsc1)CCN(C1CCN(C(=O)c3cc(C(F)(F)F)cc(C(F)(F)F)c3)C(Cc3ccccc3)C1)CC2 (stereo not drawn) [Compound 2.7]	158	3980		
O=C1OC2(CCN1Cc1ccoc1)CCN(C1CCN(C(=O)c3cc(C(F)(F)F)cc(C(F)(F)F)c3)C(Cc3ccccc3)C1)CC2 (stereo not drawn) [Compound 2.8]	251	> 10000	6310	
Cc1ccccc1CN1CCC2(CCN(C3CCN(C(=O)c4cc(C(F)(F)F)cc(C(F)(F)F)c4)C(Cc4ccccc4)C3)CC2)OC1=O (stereo not drawn) [Compound 2.11]	398	> 10000	7940	
Cc1ccccc1CN1CCC2(CCN(C3CCN(C(=O)c4cc(C(F)(F)F)cc(C(F)(F)F)c4)C(Cc4ccccc4)C3)CC2)OC1=O (stereo not drawn) [Compound 2.12]	251	3980	5010	
O=C1OC2(CCN1Cc1ccc(O)cc1)CCN(C1CCN(C(=O)c3cc(C(F)(F)F)cc(C(F)(F)F)c3)C(Cc3ccccc3)C1)CC2 (stereo not drawn) [Compound 2.15]	316	> 10000	2000	
